Laboratory results from patent publication US20240393292A1, “ALLERGY ANTIGEN AND EPITOPE THEREOF” (HOYU CO., LTD., priority 2019, published 2024).

System: IgE antibodies from patients
Assay: Wheat epitope mapping (2): overlapping 10-amino-acid peptide fragments shifted by one amino acid;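 for epitope sequence binding to IgE antibody, rank (Key/Preferably/More preferably): key of grades: preferably = shorter partial sequence still acting as epitope; more preferably = sequence improving IgE binding; key = particularly important sequence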
Assay type: binding, human
Settings: for Epitope sequence binding to IgE antibody, rank of the sequence (Key/Preferably/More preferably): sequence without X
How it was run: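 Cellulose-bound 10-mer peptides offset by one residue were probed with patient serum IgE and detected by chemiluminescence. Secondary-antibody-only signals were subtracted per peptide. Residual binding was expressed as % of the parent overlapping peptide, scored as none (<30%), poor (30–<50%), somewhat poor (50–<70%) or retained (≥70%).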

## 1923 (QQFPGQQQ; REGION 1..8: note = epitope) [compound 1923]
Serum of patient P12 (WDEIA)
  epitope sequence binding to IgE antibody, rank (Key/Preferably/More preferably): Preferably

## 1924 (FPGQQ; REGION 1..5: note = epitope) [compound 1924]
Serum of patient P12 (WDEIA)
  epitope sequence binding to IgE antibody, rank (Key/Preferably/More preferably): Key

## 1925 (QFPGQQ; REGION 1..6: note = epitope) [compound 1925]
Serum of patient P13 (WDEIA)
  epitope sequence binding to IgE antibody, rank (Key/Preferably/More preferably): Key

## 1926 (QQQFPGQQQ; REGION 1..9: note = epitope) [compound 1926]
Serum of patient P14 (WDEIA)
  epitope sequence binding to IgE antibody, rank (Key/Preferably/More preferably): Preferably

## 1927 (QFPGQQ; REGION 1..6: note = epitope) [compound 1927]
Serum of patient P14 (WDEIA)
  epitope sequence binding to IgE antibody, rank (Key/Preferably/More preferably): Key

## 1928 (VPLVQQQ; REGION 1..7: note = epitope) [compound 1928]
Serum of patient P15 (WDEIA)
  epitope sequence binding to IgE antibody, rank (Key/Preferably/More preferably): Key

## 1929 (QFPGQQQ; REGION 1..7: note = epitope) [compound 1929]
Serum of patient P15 (WDEIA)
  epitope sequence binding to IgE antibody, rank (Key/Preferably/More preferably): Preferably

## 1930 (FPGQQQ; REGION 1..6: note = epitope) [compound 1930]
Serum of patient P15 (WDEIA)
  epitope sequence binding to IgE antibody, rank (Key/Preferably/More preferably): Key

## 1932 (QVPLVQQQ; REGION 1..8: note = epitope) [compound 1932]
Serum of patient P17 (WDEIA)
  epitope sequence binding to IgE antibody, rank (Key/Preferably/More preferably): Preferably

## 1933 (VPLVQQ; REGION 1..6: note = epitope) [compound 1933]
Serum of patient P17 (WDEIA)
  epitope sequence binding to IgE antibody, rank (Key/Preferably/More preferably): Key

## 1936 (QVPLVQQ; REGION 1..7: note = epitope) [compound 1936]
Serum of patient P19 (WDEIA)
  epitope sequence binding to IgE antibody, rank (Key/Preferably/More preferably): Key

## 1937 (QQFPGQQQ; REGION 1..8: note = epitope) [compound 1937]
Serum of patient P19 (WDEIA)
  epitope sequence binding to IgE antibody, rank (Key/Preferably/More preferably): Preferably

## 1938 (QFPGQQ; REGION 1..6: note = epitope) [compound 1938]
Serum of patient P19 (WDEIA)
  epitope sequence binding to IgE antibody, rank (Key/Preferably/More preferably): Key

## 1939 (QVPLVQQ; REGION 1..7: note = epitope) [compound 1939]
Serum of patient P21 (WDEIA)
  epitope sequence binding to IgE antibody, rank (Key/Preferably/More preferably): Preferably

## 1940 (VPLVQ; REGION 1..5: note = epitope) [compound 1940]
Serum of patient P21 (WDEIA)
  epitope sequence binding to IgE antibody, rank (Key/Preferably/More preferably): Key

## 1941 (QQFPGQQQ; REGION 1..8: note = epitope) [compound 1941]
Serum of patient P21 (WDEIA)
  epitope sequence binding to IgE antibody, rank (Key/Preferably/More preferably): More preferably

## 1942 (QQFPGQQ; REGION 1..7: note = epitope) [compound 1942]
Serum of patient P21 (WDEIA)
  epitope sequence binding to IgE antibody, rank (Key/Preferably/More preferably): Preferably

## 1943 (QFPGQQ; REGION 1..6: note = epitope) [compound 1943]
Serum of patient P21 (WDEIA)
  epitope sequence binding to IgE antibody, rank (Key/Preferably/More preferably): Key

## 1944 (QFPGQQQ; REGION 1..7: note = epitope) [compound 1944]
Serum of patient P22 (WDEIA)
  epitope sequence binding to IgE antibody, rank (Key/Preferably/More preferably): More preferably

## 1945 (FPGQQ; REGION 1..5: note = epitope) [compound 1945]
Serum of patient P22 (WDEIA)
  epitope sequence binding to IgE antibody, rank (Key/Preferably/More preferably): Preferably

## 1946 (FPGQ; REGION 1..4: note = epitope) [compound 1946]
Serum of patient P22 (WDEIA)
  epitope sequence binding to IgE antibody, rank (Key/Preferably/More preferably): Key

## 1948 (QVPLVQQQ; REGION 1..8: note = epitope) [compound 1948]
Serum of patient P24 (WDEIA)
  epitope sequence binding to IgE antibody, rank (Key/Preferably/More preferably): Preferably

## 1949 (VPLVQQ; REGION 1..6: note = epitope) [compound 1949]
Serum of patient P24 (WDEIA)
  epitope sequence binding to IgE antibody, rank (Key/Preferably/More preferably): Key

## 1950 (QQQFPGQQQ; REGION 1..9: note = epitope) [compound 1950]
Serum of patient P24 (WDEIA)
  epitope sequence binding to IgE antibody, rank (Key/Preferably/More preferably): More preferably

## 1951 (QFPGQQQ; REGION 1..7: note = epitope) [compound 1951]
Serum of patient P24 (WDEIA)
  epitope sequence binding to IgE antibody, rank (Key/Preferably/More preferably): Preferably

## 1952 (QFPGQQ; REGION 1..6: note = epitope) [compound 1952]
Serum of patient P24 (WDEIA)
  epitope sequence binding to IgE antibody, rank (Key/Preferably/More preferably): Key

## 1954 (QQFPGQQ; REGION 1..7: note = epitope) [compound 1954]
Serum of patient P26 (WDEIA)
  epitope sequence binding to IgE antibody, rank (Key/Preferably/More preferably): Preferably

## 1955 (QFPGQ; REGION 1..5: note = epitope) [compound 1955]
Serum of patient P26 (WDEIA)
  epitope sequence binding to IgE antibody, rank (Key/Preferably/More preferably): Key

## 1958 (QQFPGQQQ; REGION 1..8: note = epitope) [compound 1958]
Serum of patient P28 (WDEIA)
  epitope sequence binding to IgE antibody, rank (Key/Preferably/More preferably): More preferably

## 1959 (QFPGQQ; REGION 1..6: note = epitope) [compound 1959]
Serum of patient P28 (WDEIA)
  epitope sequence binding to IgE antibody, rank (Key/Preferably/More preferably): Preferably

## 1961 (QQQQFPGQQ; REGION 1..9: note = epitope) [compound 1961]
Serum of patient P32 (WDEIA)
  epitope sequence binding to IgE antibody, rank (Key/Preferably/More preferably): Preferably

## 1962 (QQQFPGQQ; REGION 1..8: note = epitope) [compound 1962]
Serum of patient P32 (WDEIA)
  epitope sequence binding to IgE antibody, rank (Key/Preferably/More preferably): Key

## 1964 (QQQFPGQQ; REGION 1..8: note = epitope) [compound 1964]
Serum of patient P33 (WDEIA)
  epitope sequence binding to IgE antibody, rank (Key/Preferably/More preferably): More preferably

## 1965 (QQFPGQQ; REGION 1..7: note = epitope) [compound 1965]
Serum of patient P33 (WDEIA)
  epitope sequence binding to IgE antibody, rank (Key/Preferably/More preferably): Preferably

## 1966 (QFPGQQ; REGION 1..6: note = epitope) [compound 1966]
Serum of patient P33 (WDEIA)
  epitope sequence binding to IgE antibody, rank (Key/Preferably/More preferably): Key

## 1967 (VPLVQQQ; REGION 1..7: note = epitope) [compound 1967]
Serum of patient P34 (WDEIA)
  epitope sequence binding to IgE antibody, rank (Key/Preferably/More preferably): Key

## 1968 (QFPGQQ; REGION 1..6: note = epitope) [compound 1968]
Serum of patient P34 (WDEIA)
  epitope sequence binding to IgE antibody, rank (Key/Preferably/More preferably): Key

## 2219 (IRNYRVAI; REGION 1..8: note = epitope) [compound 2219]
Serum of patient P2 (WDEIA)
  Epitope sequence binding to IgE antibody, rank of the sequence (Key/Preferably/More preferably): Preferably

## 2220 (NYRV; REGION 1..4: note = epitope) [compound 2220]
Serum of patient P2 (WDEIA)
  Epitope sequence binding to IgE antibody, rank of the sequence (Key/Preferably/More preferably): Key

## 2221 (IRNYR; REGION 1..5: note = epitope) [compound 2221]
Serum of patient P7 (WDEIA)
  Epitope sequence binding to IgE antibody, rank of the sequence (Key/Preferably/More preferably): Key

## 2222 (RLLRGIRNY; REGION 1..9: note = epitope) [compound 2222]
Serum of patient P8 (WDEIA)
  Epitope sequence binding to IgE antibody, rank of the sequence (Key/Preferably/More preferably): Key

## 2223 (IRNYRVA; REGION 1..7: note = epitope) [compound 2223]
Serum of patient P8 (WDEIA)
  Epitope sequence binding to IgE antibody, rank of the sequence (Key/Preferably/More preferably): Key

## 2224 (IRNYRVA; REGION 1..7: note = epitope) [compound 2224]
Serum of patient P16 (WDEIA)
  Epitope sequence binding to IgE antibody, rank of the sequence (Key/Preferably/More preferably): Key

## 2225 (VSRLLRGIRN; REGION 1..10: note = epitope) [compound 2225]
Serum of patient P17 (WDEIA)
  Epitope sequence binding to IgE antibody, rank of the sequence (Key/Preferably/More preferably): Key

## 2226 (RNYR; REGION 1..4: note = epitope) [compound 2226]
Serum of patient P17 (WDEIA)
  Epitope sequence binding to IgE antibody, rank of the sequence (Key/Preferably/More preferably): Key

## 2227 (LLRGIRN; REGION 1..7: note = epitope) [compound 2227]
Serum of patient P18 (WDEIA)
  Epitope sequence binding to IgE antibody, rank of the sequence (Key/Preferably/More preferably): Key

## 2228 (NYRVAI; REGION 1..6: note = epitope) [compound 2228]
Serum of patient P18 (WDEIA)
  Epitope sequence binding to IgE antibody, rank of the sequence (Key/Preferably/More preferably): Key

## 2230 (IRNYRV; REGION 1..6: note = epitope) [compound 2230]
Serum of patient P21 (WDEIA)
  Epitope sequence binding to IgE antibody, rank of the sequence (Key/Preferably/More preferably): Key

## 2231 (IRNY; REGION 1..4: note = epitope) [compound 2231]
Serum of patient P28 (WDEIA)
  Epitope sequence binding to IgE antibody, rank of the sequence (Key/Preferably/More preferably): Key

## 2233 (IRNYRVAI; REGION 1..8: note = epitope) [compound 2233]
Serum of patient P29 (WDEIA)
  Epitope sequence binding to IgE antibody, rank of the sequence (Key/Preferably/More preferably): Preferably

## 2234 (RNYR; REGION 1..4: note = epitope) [compound 2234]
Serum of patient P29 (WDEIA)
  Epitope sequence binding to IgE antibody, rank of the sequence (Key/Preferably/More preferably): Key

## 2235 (SRLLRGIRN; REGION 1..9: note = epitope) [compound 2235]
Serum of patient P30 (WDEIA)
  Epitope sequence binding to IgE antibody, rank of the sequence (Key/Preferably/More preferably): Key

## 2236 (IRNYRVAI; REGION 1..8: note = epitope) [compound 2236]
Serum of patient P30 (WDEIA)
  Epitope sequence binding to IgE antibody, rank of the sequence (Key/Preferably/More preferably): Preferably

## 2237 (NYRV; REGION 1..4: note = epitope) [compound 2237]
Serum of patient P30 (WDEIA)
  Epitope sequence binding to IgE antibody, rank of the sequence (Key/Preferably/More preferably): Key

## 2238 (LLRGIRNYRV; REGION 1..10: note = epitope) [compound 2238]
Serum of patient P31 (WDEIA)
  Epitope sequence binding to IgE antibody, rank of the sequence (Key/Preferably/More preferably): Key

## 2239 (NYRVAI; REGION 1..6: note = epitope) [compound 2239]
Serum of patient P31 (WDEIA)
  Epitope sequence binding to IgE antibody, rank of the sequence (Key/Preferably/More preferably): Key

## 2240 (IRNYRVAI; REGION 1..8: note = epitope) [compound 2240]
Serum of patient P32 (WDEIA)
  Epitope sequence binding to IgE antibody, rank of the sequence (Key/Preferably/More preferably): Key

## 2241 (RLLRGIRN; REGION 1..8: note = epitope) [compound 2241]
Serum of patient P34 (WDEIA)
  Epitope sequence binding to IgE antibody, rank of the sequence (Key/Preferably/More preferably): Key

## 2242 (IRNYRVAI; REGION 1..8: note = epitope) [compound 2242]
Serum of patient P35 (WDEIA)
  Epitope sequence binding to IgE antibody, rank of the sequence (Key/Preferably/More preferably): Key

## 2243 (RLLRGIRNY; REGION 1..9: note = epitope) [compound 2243]
Serum of patient P36 (WDEIA)
  Epitope sequence binding to IgE antibody, rank of the sequence (Key/Preferably/More preferably): Key
